Assay results: patent US20100092427A1, “Pyridinone Diketo Acids: Inhibitors of HIV Replication in Combination Therapy” (THE UNIVERSITY OF GEORGIA RESEARCH FOUNDATION, priority 2006, published 2010)
Like-named read-outs stand apart in the source and are kept apart here.

How the values were obtained:
HIVNL4-3 = assay: anti-HIV data in PBMC for the clinical isolate HIVNL4-3; type: cell-based
PBMC = assay: cytotoxicity (CC95) in PBMC, same anti-HIV study
physchem = conditions: buffer, pH 7.4
in vitro = conditions: human, pooled liver microsomes

half-life (physchem) [h]	half-life (in vitro) [h]	SMILES	EC95 (HIVNL4-3; AZT in the same study) [nM]	CC95 (PBMC) [nM]	EC95 (HIVNL4-3) [nM]
		Cc1cn([C@H]2C[C@H](N=[N+]=[N-])[C@@H](CO)O2)c(=O)[nH]c1=O [AZT, Zidovudine, reference compound]	9.42	> 1000	
> 41	> 6	O=C(O)/C(O)=C/C(=O)c1cc(Cc2ccccc2)cn(Cc2ccccc2)c1=O [Compound 8]		> 200000	610
